Test results taken from publication PMC2918699 (European journal of medicinal chemistry, 2010).

How the values were obtained:
[1] = GC-MS analysis of stilbenes in mice serum; type: in vivo, SCID mice; details: GC-MS retention time and mass spectrum compared to standards
HT-29 xenograft = HT-29 xenograft tumor growth in SCID mice; type: in vivo; details: 10 mg/kg i.p. once daily, after 3 weeks
yeast = yeast assays, mimics calorie restriction by stimulating Sir2; cited from earlier work
p27 = p27 in HT-29 tumors by western blotting and immunohistochemistry; type: in vivo, SCID mice; details: western blotting and immunohistochemistry of HT-29 tumors
PCNA = PCNA in HT-29 tumors by western blotting and immunohistochemistry; type: in vivo, SCID mice; details: western blotting and immunohistochemistry of HT-29 tumors

SMILES	Configuration (cis/trans) found in the serum [1]	Tumor weight decrease compared to the control (HT-29 xenograft)	also measured
COC(=O)c1ccc(/C=C\c2cc(OC)cc(OC)c2)cc1 [Compound 6, (Z)- Methyl 4-(3,5-dimethoxystyryl)benzoate]	retained their configurations	–	–
COc1ccc(/C=C\c2cc(OC)cc(OC)c2)cc1 [Compound 10, (Z)-1,3-dimethoxy-5-(4-methoxystyryl)benzene]	retained their configurations	15%	–
Oc1ccc(/C=C/c2cc(O)cc(O)c2)cc1 [Compound 17, Resveratrol]	–	–	extended lifespan (yeast): 70%
COc1cc(/C=C\c2ccc(N)cc2)cc(OC)c1 [Compound 4, (Z)-4-(3,5-dimethoxystyryl)aniline]	isomerized to 3	–	–
COC(=O)c1ccc(/C=C/c2cc(OC)cc(OC)c2)cc1 [Compound 5, (E)-Methyl-4-(3,5-dimethoxystyryl)benzoate]	retained their configurations	–	–
COc1ccc(/C=C/c2cc(OC)cc(OC)c2)cc1 [Compound 9, (E)-1,3-dimethoxy-5-(4-methoxystyryl)benzene]	retained their configurations	21%	p27 levels in tumors (p27): increased; PCNA levels in tumors (PCNA): lowered; Tumor volume lower compared to the control (HT-29 xenograft): 45%
